Measured values published in patent publication US5892045A, “4-aryl-3-hydroxyquinolin-2-one derivatives as ion channel modulators” (priority 1997, dated 1999).

Tested on: cloned mammalian (mSlo or hSlo) BK channels expressed in Xenopus oocytes
Assay: Increase of cloned BK-mediated outward current, two-electrode voltage clamp in Xenopus oocytes (IBTX-sensitive current)
Assay type: cell-based
Conditions: at 20 μM expressed as percent of controls; at least 5 oocytes
Experimental: The ability of compounds described in the present invention to open BK channels and increase whole-cell outward (K^+) BK-mediated currents was assessed under voltage-clamp conditions by determining their ability to increase cloned mammalian (mSlo or hSlo) BK-mediated outward current heterologously expressed in Xenopus oocytes [Butler, A., et al., Science, 261: 221-224 (1993); and Dworetzky, S. I., et al., Mol. Brain Res., 27: 189-193 (1994)]. The two BK constructs employed represent nearly structurally identical homologous proteins, and have proven to be pharmacologically identical in our tests. […] The relative contribution of BK channels current to total outward current was determined by subtraction of the current remaining in the presence of IBTX (non-BK current) from the current profiles obtained in all other experimental conditions (control, drug, and wash). […] All compounds were tested in at least 5 oocytes and are reported at the single concentration of 20 μM; the effect of the selected compounds of Formula I on BK current was expressed as the percent of control IBTX-sensitive current and is listed in Table I. Recordings were accomplished using standard two-electrode voltage clamp techniques [Stuhmer, W., et al., Methods in Enzymology, Vol. 207: 319-339 (1992)]; voltage-clamp protocols consisted of 500-750 ms duration step depolarization from a holding potential of -60 mV to +140 mV in 20 mV steps. The experimental media (modified Barth's solution) consisted of (in mM): NaCl (88), NaHCO3 (2.4), KCl (1.0), HEPES (10), MgSO4 (0.82), Ca(NO3)2 (0.33), CaCl2 (0.41); pH 7.5.

**Q.** For O=c1[nH]c2cc(Cl)cc(Cl)c2c(-c2cc(Cl)ccc2O)c1O [Example 2, 5,7-Dichloro-4-(5-chloro-2-hydroxyphenyl)-3-hydroxy-2(1H)-quinolinone], which “BK Current (percent of control IBTX-sensitive current)” value is on record?
**A.** ++ (>150%)

**Q.** For COc1ccc(Br)cc1-c1c(O)c(=O)[nH]c2ccc([N+](=O)[O-])cc12 [Example 3], which “BK Current (percent of control IBTX-sensitive current)” value is on record?
**A.** + (100-150%)

**Q.** For COc1ccc(Br)cc1-c1c(O)c(=O)[nH]c2cc(Cl)cc(Cl)c12 [Example 4], which “BK Current (percent of control IBTX-sensitive current)” value is on record?
**A.** ++ (>150%)

**Q.** Which “BK Current (percent of control IBTX-sensitive current)” value does the source give for COc1ccc(Cl)cc1-c1c(O)c(=O)[nH]c2cc(Cl)ccc12 [Example 5] here?
**A.** + (100-150%)

**Q.** With O=c1[nH]c2ccccc2c(-c2cc(Br)ccc2O)c1O [Example 6] as the compound, how does the “BK Current (percent of control IBTX-sensitive current)” value read?
**A.** + (100-150%)

**Q.** With Cn1c(=O)c(O)c(-c2cc(Br)ccc2O)c2ccccc21 [Example 7] as the compound, how does the “BK Current (percent of control IBTX-sensitive current)” value read?
**A.** + (100-150%)

**Q.** For O=c1[nH]c2ccccc2c(-c2cc(Cl)ccc2O)c1O [Example 8], which “BK Current (percent of control IBTX-sensitive current)” value is on record?
**A.** + (100-150%)

**Q.** With O=c1[nH]c2ccc([N+](=O)[O-])cc2c(-c2cc(Br)ccc2O)c1O [Example 9] as the compound, how does the “BK Current (percent of control IBTX-sensitive current)” value read?
**A.** ++ (>150%)

**Q.** With O=c1[nH]c2cc(C(F)(F)F)ccc2c(-c2cc(Cl)ccc2O)c1O [Example 10] as the compound, how does the “BK Current (percent of control IBTX-sensitive current)” value read?
**A.** ++ (>150%)

**Q.** With O=c1[nH]c2cc(C(F)(F)F)ccc2c(-c2cc(Br)ccc2O)c1O [Example 11] as the compound, how does the “BK Current (percent of control IBTX-sensitive current)” value read?
**A.** ++ (>150%)

**Q.** For O=c1[nH]c2cc(Cl)cc(Cl)c2c(-c2cc(Br)ccc2O)c1O [Example 12], which “BK Current (percent of control IBTX-sensitive current)” value is on record?
**A.** ++ (>150%)

**Q.** Which “BK Current (percent of control IBTX-sensitive current)” value does the source give for O=c1[nH]c2ccc(Cl)cc2c(-c2cc(Cl)ccc2O)c1O [Example 13] here?
**A.** + (100-150%)

**Q.** With O=c1[nH]c2cccc(Cl)c2c(-c2cc(Cl)ccc2O)c1O [Example 14] as the compound, how does the “BK Current (percent of control IBTX-sensitive current)” value read?
**A.** + (100-150%)

**Q.** Which “BK Current (percent of control IBTX-sensitive current)” value does the source give for O=c1[nH]c2cc(Cl)ccc2c(-c2cc(Cl)ccc2O)c1O [Example 15] here?
**A.** ++ (>150%)

**Q.** Which “BK Current (percent of control IBTX-sensitive current)” value does the source give for O=c1[nH]c2ccc(C(F)(F)F)cc2c(-c2cc(Cl)ccc2O)c1O [Example 16] here?
**A.** ++ (>150%)

**Q.** With O=c1[nH]c2ccc(C(F)(F)F)cc2c(-c2cc(Br)ccc2O)c1O [Example 17] as the compound, how does the “BK Current (percent of control IBTX-sensitive current)” value read?
**A.** ++ (>150%)

**Q.** For Cn1c(=O)c(O)c(-c2cc(Cl)ccc2O)c2c(Cl)cc(Cl)cc21 [Example 18], which “BK Current (percent of control IBTX-sensitive current)” value is on record?
**A.** ++ (>150%)

**Q.** Which “BK Current (percent of control IBTX-sensitive current)” value does the source give for O=c1[nH]c2ccc(Br)cc2c(-c2cc(Br)ccc2O)c1O [Example 19] here?
**A.** ++ (>150%)

**Q.** Which “BK Current (percent of control IBTX-sensitive current)” value does the source give for O=c1[nH]c2ccc(Br)cc2c(-c2cc(Cl)ccc2O)c1O [Example 20] here?
**A.** ++ (>150%)

**Q.** For O=c1[nH]c2c(Cl)cccc2c(-c2cc(Cl)ccc2O)c1O [Example 21], which “BK Current (percent of control IBTX-sensitive current)” value is on record?
**A.** + (100-150%)

Tested on: BK channel
Assay: not given
Conditions: very limited electrophysiological experiments; Laurent 1993; cited from earlier work

**Q.** With CNc1nc(Br)cn2cc(C#N)nc12 [SCA-40, 6-Bromo-8-(methylamino) imidazo[1,2-a]pyrazine-2-carbonitrile] as the compound, how does the “BK channel opening activity” value read?
**A.** BK channel opener

Tested on: Ca^2+ -activated potassium channels
Assay: not given
Conditions: outside-out patches, myelinated nerve fibers; Koh 1994; cited from earlier work

**Q.** Which “open probability of Ca^2+ -activated potassium channels” value does the source give for O=C(CCc1ccc(O)cc1)c1c(O)cc(O)cc1O [Phloretin] here?
**A.** increase the open probability

Tested on: BK channel
Assay: not given
Conditions: Galvez 1990; cited from earlier work

**Q.** With “iberiotoxin: specific and potent BK channel-blocking toxin iberiotoxin (IBTX) (QFTDVDCSVSKECWSVCKDLFGVDRGKCMGKKCRCYQ; UniProt P24663 1-37, looked up)” as the compound, how does the BK channel block read?
**A.** specific and potent BK channel-blocking toxin
